According to US9504660B2, “Retinaldehyde mimetics and inhibitors of retinaldehyde dehydrogenase I in the treatment of disorders” (THE BRIGHAM AND WOMEN'S HOSPITAL, INC., priority 2012, dated 2016):

Legend:
[1] = system: UCP-1; test: UCP-1 gene expression in 10T1/2 cells during adipogenic differentiation; type: cell-based, murine; conditions: for effect on Rald-mediated UCP-1 expression: antagonist with Rald
Experimental: (§1) C3H10T1/2, isolated human stromal-vascular cells and Aldh1a1^−/− MEFs were cultured and differentiated as previously described^8. Briefly, cells were grown to confluence in DMEM, 10% fetal bovine serum (FBS) and 1% penicillin/streptomycin followed by standard adipogenic induction (20 nM insulin, 1 nM T3, 0.5 mM isobutylmethylxanthine, […], 0.125 mM indomethacin) and stimulation with retinoids, retinoid antagonists or vehicle (DMSO) as indicated. After a 48 h induction phase, growth media was supplemented with insulin, T3, and indicated retinoids which were changed every other day up to day 6.
(§2) Total RNA was extracted (RNeasy, Qiagen, Hi[den, Germany), DNase-treated (Qiagen), and reverse-transcribed to cDNA. Gene expression, normalized to 36B4, was analyzed by quantitative real-time RT-PCR (Sybr Green, 96 well plates) using a MyiQ cycler (Bio-Rad, Hercules, Calif.). Primer sequences are available upon request.

[2] = system: RXR; test: 9cisRA-induced Cyp26a1 expression in 10T1/2 cells; type: cell-based, murine; conditions: data not shown
Experimental: as §1, §2

[3] = system: UCP-1 promoter; test: UCP-1 promoter luciferase reporter in undifferentiated 10T1/2 cells; type: cell-based, murine; conditions: 24 h, increasing concentrations / 1 pM
Experimental: (§3) Cell lysates were harvested 48 h post transfection and luciferase activity quantified by standard luminometer assay and normalized to 3-galactosidase.

[4] = system: RAR; conditions: ligand displacement assays, reference 37; cited from earlier work
[5] = system: retinoic acid response element (RARE) luciferase reporter; test: RARE luciferase reporter in undifferentiated 10T1/2 cells; type: cell-based, murine; conditions: 24 h, concentration-dependent
Experimental: as §3

[6] = system: UCP-1 promoter region; test: Chromatin immunoprecipitation (ChIP) at the UCP-1 promoter region in 10T1/2 cells; type: cell-based, mouse
Experimental: ChIP was performed in Rald versus vehicle stimulated C3H10T1/2 adipocytes using EZ-Magna ChIP™ kit following manufacturer's instructions (Millipore, Billerica, Mass.) and RARa, PGC-1a, or rabbit lgG antibodies as a negative control (all Santa Cruz). lmmunoprecipitated DNA was amplified by real-time PCR using primers specific for the mouse UCP-1 promoter region. Relative PGC-la and RARa occupancy at the UCP-1 promoter was determined normalized to input DNA

[7] = system: 3T3-L1 cells; conditions: reference 16; cited from earlier work
[8] = system: UCP-1; test: UCP-1 expression in differentiating human stromal-vascular cells from subcutaneous fat biopsies; type: cell-based; conditions: 1 pM during differentiation
Experimental: (§4) Abdominal subcutaneous fat biopsies were obtained from a subject undergoing gastric bypass surgery who gave written informed consent. Fat biopsies were immediately washed with phosphate buffered saline (PBS), minced, and digested (1 mg/mi collagenase, 45 min, 37° C.) in DMEM containing 1% BSA. Digested tissues were filtered through sterile 150 µm nylon mesh and centrifuged (250 g, 5 min). The floating fractions containing adipocytes were discarded and they stromal-vascular fraction pellet was resuspended in erythrocyte lysis buffer (154 mM NH4CI, 10 mM KHCO3, 0.1 mM EDTA, 10 min) to remove red blood cells. The cells were further centrifuged at 500 g for 5 min, plated on a 24-well culture dish and grown, and differentiated to mature adipocytes as described below. MEFs were isolated from Aldh1a1^−/− embryos at embryonic day 14.5 using standard tech niques^43.
(§5) C3H10T1/2, isolated human stromal-vascular cells and Aldh1a1^−/− MEFs were cultured and differentiated as previously described^8. […]
(§6) Total RNA was extracted (RNeasy, Qiagen, Hi[den, Germany), DNase-treated (Qiagen), and reverse-transcribed to cDNA. Gene expression, normalized to 36B4, was analyzed by quantitative real-time RT-PCR (Sybr Green, 96 well plates) using a MyiQ cycler (Bio-Rad, Hercules, Calif.). […]

[9] = system: UCP-1; test: UCP-1 gene expression in Aldh1a1-/- mouse embryonic fibroblast (MEF)-derived adipocytes; type: cell-based; conditions: stimulation 24 h, versus vehicle-treated cells
Experimental: as §4, §5, §6

[10] = system: UCP-1; test: UCP-1 mRNA in shAldh1a1-transfected 10T1/2 cells; type: cell-based, murine; conditions: Rald stimulation (1 pM) in shAldh1a1-treated 10T1/2 cells
Experimental: as §1
Mission® shRNA constructs targeting Aldh1a1 and a non-targeting control shRNA were purchased from Sigma. To generate lentivirus particles, shRNA constructs were transfected into HEK293TN cells (SA Biosciences, Frederick, Md.) along with the packaging vectors psPAX and pM2DG. After 72 h, virus-containing supernatant was precipitated using polyethylene glycol (SA Biosciences) and concentrated in PBS (30×). […]
as §6

[11] = biological target: T1, RARa ligand binding domain (LBD) (Homo sapiens, UniProt P10276); test: Cell-free TR-FRET assay, PGC-1a recruitment to RARa LBD; type: biochemical
T1 construct: purchased Invitrogen
T1 sequence (P10276 183-417 limits assumed): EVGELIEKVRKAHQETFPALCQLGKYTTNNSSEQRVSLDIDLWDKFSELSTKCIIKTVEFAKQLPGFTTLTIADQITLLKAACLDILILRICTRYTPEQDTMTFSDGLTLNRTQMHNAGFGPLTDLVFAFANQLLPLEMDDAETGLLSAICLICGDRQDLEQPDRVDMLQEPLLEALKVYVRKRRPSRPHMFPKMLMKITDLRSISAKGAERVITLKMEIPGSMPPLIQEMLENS
Experimental: Lanthascreen” TR-FRET RARa and RXR13 coactivator assays (Invitrogen) were performed as per manufacturer protocol using a PerkinElmer (Waltham, Mass.) EnVision™ fluorescence plate reader.

[12] = system: RXRa ligand binding domain (LBD); test: Cell-free TR-FRET assay, PGC-1a recruitment to RXRa LBD; type: biochemical
[13] = Established diet-induced obesity in high-fat diet fed C57Bl/6J mice, body weight and fat depot mass; type: in vivo; conditions: HFD 8 weeks before treatment, continued HFD additional 9 weeks, compared to control ASO
Experimental: (§7) Aldh1a1-deficient (Aldh1a1^4″) mice were backcrossed to a C57BL/6J background (>20 generations). Mice were kept on a standard chow diet with a Vitamin A content of 15 IU/g or on high-fat diet (60% kcal fat, Research Diets, New Brunswick, N.J.) as indicated. Mice had free access to food and water except as indicated under Harvard Medical School Institutional Animal Care and Use Committee guidelines. Experiments were conducted using 12-14 week old female mice unless otherwise indicated.
(§8) An ASO targeting murine Aldh1a1 and a control ASO not hybridizing to any known murine RNA sequences were synthesized and purified by Isis Pharmaceuticals Inc. (Carlsbad, Calif.) as described previously^39. In vitro characterization including knockdown validation of the Aldh1a1 ASO was done in murine primary hepatocytes. ASOs (70 mg/kg/wk) were administered via intraperitoneal (i.p.) injection twice weekly.

[14] = system: UCP-1; test: UCP-1 expression in fat depots of ASO-treated C57Bl/6J mice; type: in vivo; conditions: chow-fed mice, i.p. 35 mg/kg/dose twice a week for 6 weeks
Experimental: as §7, §8, §6
Homogenized tissue was lysed in RIPA buffer (Boston Bioproducts, Ashland, Mass.) containing protease and phosphatase inhibitors. […] Proteins were detected by chemiluminescence (GE HealthCare Amersham, Amersham, UK).

[15] = Core body temperature under ambient and cold-induced conditions in ASO-treated mice; type: in vivo; conditions: versus Ctrl ASO-treated mice
Experimental: as §8
Core body temperature was assessed in mice as before^49,41. WT and Aldh1a1^−/− mice (12 week old, n=6/group) were anesthetized (Ketamine/Xylazine/Acepromazine, 100/10/3 mg/kg i.p.) and a telemetric temperature probe (E-mitter, MiniMitter, Bend, Oreg.) was implanted intra-abdominally. One week after surgery, mice were single-housed in open-circuit Oxymax chambers as part of the Comprehensive Lab Animal Monitoring System (CLAMS; Columbus Instruments, Columbus, Ohio)^42. Oxymax chambers were kept in a temperature enclosure with 12 h light/dark cycles at 23° C. and mice had ad-libitum access to food and water. After a 48 h acclimatization phase, core body temperature was recorded every 10 min for 48 h at ambient temperature (23° C.), followed by 48 h cold stimulation (4° C.). After sacrifice, fat depots were dissected and analyzed.

[16] = system: Aldh1a1; test: Aldh1a1 expression in tissues of ASO-treated C57Bl/6J mice; type: in vivo
Experimental: as §7, §8, §2
Homogenized tissue was lysed in RIPA buffer (Boston Bioproducts, Ashland, Mass.) containing protease and phosphatase inhibitors. Standard Western blotting was performed using rabbit polyclonal antibody against UCP-1, rabbit monoclonal antibody against Aldh1a1 (both Abcam, Cambridge, UK), GAPDH and f3-Tubulin (both Santa Cruz Biotechnology). Proteins were detected by chemiluminescence (GE HealthCare Amersham, Amersham, UK).

[17] = Glucose and insulin tolerance tests in high-fat diet fed obese mice; type: in vivo; conditions: HFD obese mice, compared to control ASO
Experimental: as §8
Glucose (GTT) and insulin tolerance tests (ITT) were performed on mice after fasting (12 h and 6 h, respectively). Mice were injected i.p. either with D-glucose (Sigma, 0.75 g/kg body weight) or recombinant human regular insulin (0.5 U/kg body weight, Humulin R, Eli Lilly, Indianapolis, Ind.); blood glucose concentrations were measured periodically up to 120 min by glucometer (Abbott Laboratories, Abbott Park, Ill.).

[18] = each 1 pM, differentiating 10T1/2 cells
[19] = 1 pM during adipogenic differentiation
[20] = chow-fed mice, i.p. 35 mg/kg/dose twice a week for 6 weeks, compared to Ctrl ASO

Compound: CN1c2ccc([N+](=O)[O-])cc2N=C(c2ccc(C(=O)O)cc2)c2cc3c(cc21)C(C)(C)CCC3(C)C [HX531, reference compound]
- effect on Rald-mediated UCP-1 expression [1, 18]: did not alter
- 9cisRA-induced expression of the RA target gene Cyp26a1 [2]: significantly inhibit

Compound: CC1=C(/C=C/C(C)=C/C=C/C(C)=C/CO)C(C)(C)CCC1 [retinol]
- UCP-1 promoter luciferase activity [3]: not and failed to induce
- binding to RAR [4]: can bind

Compound: CC1=C(/C=C/C(C)=C/C=C/C(C)=C/C(=O)O)C(C)(C)CCC1 [ATRA, all-trans RA, reference compound]
- activity of a canonical RARE luciferase reporter [5]: significantly increased

Compound: CC1=C(/C=C/C(C)=C/C=C/C(C)=C/C=O)C(C)(C)CCC1 [Rald, all trans-Retinal]
- PGC-1a occupancy at the UCP-1 promoter region, enrichment ([6]; Rald 1 pM during adipocyte differentiation): 5 fold
- RARa signal at the UCP-1 promoter ([6]; after stimulation, versus basal conditions): did not increase further
- adipogenesis in 3T3-L1 cells [7]: inhibitor
- UCP-1 expression [8]: significantly increased
- UCP-1 gene expression increase [9]: 40 fold
- UCP-1 mRNA expression increase [10]: 100 fold
- expression of other BAT markers including PGC-16, PRDM16, and Cidea [1, 19]: induced
- expression of the adipogenic gene aP2 [1, 19]: remained unaltered
- UCP-1 expression induction ([1]; 1 pM during adipogenic differentiation of 10T1/2 cells (white adipocytes)): 100 fold
- UCP-1 expression ([1]; co-stimulation with the Aldh inhibitor DEAB, each 1 pM, differentiating 10T1/2 cells): to the same extent as Rald alone
- EC50 [11]: 82 nM
- PGC-1a recruitment to RARa [11]: effectively recruited
- activity of a canonical RARE luciferase reporter [5]: significantly increased
- UCP-1 promoter luciferase activity [3]: increased
- PGC-1a recruitment to RXRa [12]: virtually no effect
- binding to RAR [4]: can bind

Compound: CC1=C(/C=C/C(C)=C\C=C\C(C)=C\C(=O)O)C(C)(C)CCC1 [9cisRA, reference compound]
- PGC-1a recruitment to RXRa [12]: potently recruited

Compound: Aldh1a1 ASO: ASO targeting murine Aldh1a1, synthesized by Isis Pharmaceuticals; sequence AACACGACTATGCTGGTTAC (SEQ ID NO: 01) (listed as DNA, chemistry not given here)
- GWAT mass [13]: decreased
- weight gain in obese mice [13]: significantly limited
- UCP-1 expression in GWAT [14]: significantly increased
- UCP-1 expression in SWAT or BAT (significant increase) [14]: not
- core body temperature on cold exposure ([15]; 4° C., 48 h): protected significantly
- core body temperature at ambient temperature ([15]; 23° C.): did not differ
- Aldh1a1 expression in subcutaneous WAT ([16]; administered systemically): no effect
- Aldh1a1 expression in visceral WAT ([16]; administered systemically): decrease
- Aldh1a1 expression in SWAT, BAT, spleen, intestine, and skeletal muscle [16, 20]: remained unchanged
- Aldh1a1 mRNA and protein levels in liver and GWAT [16, 20]: significantly decreased
- glucose tolerance [17]: improved
- insulin tolerance [17]: improved

Compound: Cc1ccc(C2=CCC(C)(C)c3ccc(C#Cc4ccc(C(=O)O)cc4)cc32)cc1 [AGN193109, reference compound]
- effect on Rald-mediated UCP-1 expression [1, 18]: completely inhibited
